# Target: BCL-XLΔC (Homo sapiens, UniProt Q07817)
# Experiment: High-throughput competitive FP binding screen, FITC-BAD BH3/BCL-XLΔC interaction
# Settings: FITC-BAD BH3/BCL-XLΔC interaction pair, competitive FP screen
# BCL-XLΔC, sequence (Q07817 1-212 limits assumed, stated change not applied): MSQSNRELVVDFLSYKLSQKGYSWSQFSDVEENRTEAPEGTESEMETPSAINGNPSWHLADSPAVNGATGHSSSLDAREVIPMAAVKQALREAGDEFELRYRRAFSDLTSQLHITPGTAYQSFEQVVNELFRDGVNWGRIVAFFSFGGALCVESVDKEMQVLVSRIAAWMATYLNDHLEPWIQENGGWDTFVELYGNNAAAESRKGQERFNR
row,Structure (SMILES),BCL-XL % Bound [%]
1,CCOC(=O)c1ccc2nc(NC(=O)CSc3nc(C)cc(=O)[nH]3)sc2c1,106.3
2,CC1=C(C)C/S(=N\S(=O)(=O)c2ccc(Cl)cc2)N(S(=O)(=O)c2ccc(Cl)cc2)C1 (stereo not drawn),100.2
3,CC(C)(C)c1ccc(-c2nnc(S)[nH]2)cc1,96.8
4,Cc1oc(-c2cccc(C(F)(F)F)c2)cc1C(=O)O,81.9
5,CCCCn1c2ccccc2c2nnc(S)nc21,92.39
6,CC1=CC(=O)C(CCCC2=CC(=O)C=CC2=O)=CC1=O,92.47
7,NNCc1c(Cl)cccc1Cl,103.5
8,CCOC(=O)c1c(N2C(=O)C3C4C=CC(O4)C3C2=O)sc2c1CCCC2 (stereo not drawn),95.97
9,COC(=O)c1c(NC(=O)C2CC2)sc(C)c1C,101
10,Oc1ccc(/C=N/c2cccc(C(F)(F)F)c2)c(O)c1,75.68
11,COC(=O)C1C(=O)NC(S)=C(C#N)C1c1ccccc1Cl (stereo not drawn),94.15
12,Cn1c(S)nnc1CNc1cccc(C(F)(F)F)c1,102.2
13,N#C/C(=C/c1ccc(-c2ccc(C(=O)O)cc2)o1)c1ccc(Cl)cc1,82.47
14,O=C(NC(=S)NCc1ccccc1)C1CCCC1,92.1
15,CC1CCc2c(sc3ncn4c(S)nnc4c23)C1 (stereo not drawn),95.03
16,Oc1ccc(SSc2ccc(O)cc2)cc1,104.4
17,O=C(O)/C(S)=C\C=C\c1ccccc1,90.49
18,CN1CCC(N(C)Cc2cc(C(C)(C)C)c(O)c(C(C)(C)C)c2)CC1,109.3
19,O=C1c2ccccc2-c2onc3ccc(Oc4c(F)c(F)c(F)c(F)c4F)c1c23,86.73
20,N=C1NC(=O)/C(=C2/C(=O)Nc3ccc(Br)cc32)S1,95.58
21,CCCCCSc1nnc(N/C=N/O)s1,98.25

# Next, values leading:
row,BCL-XL % Bound [%],Structure (SMILES)
1,85.88,CCOc1cc(/C=C(/C#N)c2cccc(Br)c2)ccc1OCc1ccc(C(=O)O)o1
2,107.3,Cc1nn(C)c2nc(NNC(=O)c3cccc(C(F)(F)F)c3)ccc12
3,96.49,O=c1ccc(-c2ccco2)nn1Cc1ccc(Cl)c(Cl)c1
4,99.83,CN1CCN(C(c2ccccn2)c2c(-c3ccccc3)n(O)c3ccccc23)CC1 (stereo not drawn)
5,84.74,Cc1c(Cl)cccc1N1C(=O)CC(N2CCCc3ccccc32)C1=O (stereo not drawn)
6,105.8,COc1cc(C(c2nnnn2C2CCCCC2)N2CCc3ccccc3C2)ccc1O (stereo not drawn)
7,92.47,CNc1sc(C(=O)c2cccs2)c(N)c1-c1nc2ccccc2s1
8,68.24,c1ccc(-c2ccc3c(c2)c2c4n3CCN=C4CCC2)cc1
9,115.7,O=C(NCc1ccco1)c1ccc(-c2cc3ccccc3oc2=O)cc1
10,96.46,COC(=O)c1ccc(C(c2cc3c(cc2O)OCO3)N2CCN(c3ccccc3)CC2)cc1 (stereo not drawn)
11,96.2,CC1=NN(c2ccccc2)C(=O)/C1=C/c1ccc(OC(=O)c2ccco2)c(Cl)c1
12,90.62,CC1(C)CC(=O)C(=Cc2cn(-c3ccccc3)nc2-c2cccs2)C(=O)C1
13,82.24,CCOc1cccc(CNc2ccc(N3CCCC3)cc2)c1
14,77.55,C=CCN1C(=O)/C(=C2/C(=O)Nc3ccccc32)c2ccccc21
15,98.2,O=C(CSc1nnc(C2CC2)n1Cc1ccco1)c1cccc(Cl)c1
16,112.4,O=S(=O)(NNc1cnc2ccccc2n1)c1ccccc1C(F)(F)F
17,95.33,CC1(C)CC(=O)C2=C(C1)Nc1ccc3ncccc3c1C2c1ccc(O)c(O)c1 (stereo not drawn)
18,96.07,CNC(=S)N/N=C1\CCOc2ccc3ccccc3c21
19,93.06,CC1(C)c2ssc(=S)c2-c2ccccc2N1C(=O)CSC#N
20,88.38,O=C1c2ccccc2CCC1Sc1nnc(-c2ccncc2)o1 (stereo not drawn)
21,98.46,CCN(CC)c1ccc(C2C(C#N)=C(N)N(c3cccc(C)c3)C3=C2C(=O)CCC3)cc1 (stereo not drawn)
22,93.42,Oc1ccc(C2Oc3ccccc3C3CC(c4ccccc4O)=NN32)cc1 (stereo not drawn)
23,92.93,COC(=O)c1c(N)sc2c1Cc1ccccc1C2
24,82.8,CC(C)CSC1=NSC2=NC(=O)/C(=C\c3ccc(SCc4ccco4)o3)C(=N)N12
25,94.99,Cc1ccnc(NC(c2ccco2)c2c(C)[nH]c3ccccc23)c1 (stereo not drawn)

# Target: MCL-1ΔNΔC (Homo sapiens, UniProt Q07820)
# Sequence (Q07820 172-320 limits assumed, stated change not applied): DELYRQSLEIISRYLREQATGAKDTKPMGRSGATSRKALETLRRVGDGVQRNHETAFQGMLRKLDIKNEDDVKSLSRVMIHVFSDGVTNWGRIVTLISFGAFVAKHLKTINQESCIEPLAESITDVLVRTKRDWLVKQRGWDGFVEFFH
# Experiment: High-throughput competitive FP binding screen, FITC-MCL-1 SAHB/MCL-1ΔNΔC interaction
# Parameters: the C-terminal alpha-helix was deleted from each of these constructs; GST (N, cleaved yes); made in house
# Settings: FITC-MCL-1 SAHB/MCL-1ΔNΔC interaction pair, competitive FP screen
row,Structure (SMILES),MCL-1% Bound [%]
1,CCOC(=O)c1ccc2nc(NC(=O)CSc3nc(C)cc(=O)[nH]3)sc2c1,56.55
2,CC1=C(C)C/S(=N\S(=O)(=O)c2ccc(Cl)cc2)N(S(=O)(=O)c2ccc(Cl)cc2)C1 (stereo not drawn),50.42
3,CC(C)(C)c1ccc(-c2nnc(S)[nH]2)cc1,47.97
4,Cc1oc(-c2cccc(C(F)(F)F)c2)cc1C(=O)O,33.22
5,CCCCn1c2ccccc2c2nnc(S)nc21,44.24
6,CC1=CC(=O)C(CCCC2=CC(=O)C=CC2=O)=CC1=O,44.41
7,NNCc1c(Cl)cccc1Cl,55.76
8,CCOC(=O)c1c(N2C(=O)C3C4C=CC(O4)C3C2=O)sc2c1CCCC2 (stereo not drawn),48.27
9,COC(=O)c1c(NC(=O)C2CC2)sc(C)c1C,53.71
10,Oc1ccc(/C=N/c2cccc(C(F)(F)F)c2)c(O)c1,28.42
11,COC(=O)C1C(=O)NC(S)=C(C#N)C1c1ccccc1Cl (stereo not drawn),47.02
12,Cn1c(S)nnc1CNc1cccc(C(F)(F)F)c1,55.09
13,N#C/C(=C/c1ccc(-c2ccc(C(=O)O)cc2)o1)c1ccc(Cl)cc1,35.83
14,O=C(NC(=S)NCc1ccccc1)C1CCCC1,45.64
15,CC1CCc2c(sc3ncn4c(S)nnc4c23)C1 (stereo not drawn),48.65
16,Oc1ccc(SSc2ccc(O)cc2)cc1,58.12
17,O=C(O)/C(S)=C\C=C\c1ccccc1,44.36
18,CN1CCC(N(C)Cc2cc(C(C)(C)C)c(O)c(C(C)(C)C)c2)CC1,63.36
19,O=C1c2ccccc2-c2onc3ccc(Oc4c(F)c(F)c(F)c(F)c4F)c1c23,40.76
20,N=C1NC(=O)/C(=C2/C(=O)Nc3ccc(Br)cc32)S1,50.06
21,CCCCCSc1nnc(N/C=N/O)s1,52.76

# Next, values leading:
row,MCL-1% Bound [%],Structure (SMILES)
1,35.61,CCOc1cc(/C=C(/C#N)c2cccc(Br)c2)ccc1OCc1ccc(C(=O)O)o1
2,57.07,Cc1nn(C)c2nc(NNC(=O)c3cccc(C(F)(F)F)c3)ccc12
3,46.79,O=c1ccc(-c2ccco2)nn1Cc1ccc(Cl)c(Cl)c1
4,50.55,CN1CCN(C(c2ccccn2)c2c(-c3ccccc3)n(O)c3ccccc23)CC1 (stereo not drawn)
5,35.82,Cc1c(Cl)cccc1N1C(=O)CC(N2CCCc3ccccc32)C1=O (stereo not drawn)
6,57.44,COc1cc(C(c2nnnn2C2CCCCC2)N2CCc3ccccc3C2)ccc1O (stereo not drawn)
7,44.25,CNc1sc(C(=O)c2cccs2)c(N)c1-c1nc2ccccc2s1
8,20.34,c1ccc(-c2ccc3c(c2)c2c4n3CCN=C4CCC2)cc1
9,67.95,O=C(NCc1ccco1)c1ccc(-c2cc3ccccc3oc2=O)cc1
10,48.75,COC(=O)c1ccc(C(c2cc3c(cc2O)OCO3)N2CCN(c3ccccc3)CC2)cc1 (stereo not drawn)
11,48.53,CC1=NN(c2ccccc2)C(=O)/C1=C/c1ccc(OC(=O)c2ccco2)c(Cl)c1
12,43.07,CC1(C)CC(=O)C(=Cc2cn(-c3ccccc3)nc2-c2cccs2)C(=O)C1
13,34.93,CCOc1cccc(CNc2ccc(N3CCCC3)cc2)c1
14,30.48,C=CCN1C(=O)/C(=C2/C(=O)Nc3ccccc32)c2ccccc21
15,51.14,O=C(CSc1nnc(C2CC2)n1Cc1ccco1)c1cccc(Cl)c1
16,65.42,O=S(=O)(NNc1cnc2ccccc2n1)c1ccccc1C(F)(F)F
17,48.32,CC1(C)CC(=O)C2=C(C1)Nc1ccc3ncccc3c1C2c1ccc(O)c(O)c1 (stereo not drawn)
18,49.68,CNC(=S)N/N=C1\CCOc2ccc3ccccc3c21
19,47.02,CC1(C)c2ssc(=S)c2-c2ccccc2N1C(=O)CSC#N
20,42.84,O=C1c2ccccc2CCC1Sc1nnc(-c2ccncc2)o1 (stereo not drawn)
21,53.01,CCN(CC)c1ccc(C2C(C#N)=C(N)N(c3cccc(C)c3)C3=C2C(=O)CCC3)cc1 (stereo not drawn)
22,47.99,Oc1ccc(C2Oc3ccccc3C3CC(c4ccccc4O)=NN32)cc1 (stereo not drawn)
23,47.69,COC(=O)c1c(N)sc2c1Cc1ccccc1C2
24,37.61,CC(C)CSC1=NSC2=NC(=O)/C(=C\c3ccc(SCc4ccco4)o3)C(=N)N12
25,49.8,Cc1ccnc(NC(c2ccco2)c2c(C)[nH]c3ccccc23)c1 (stereo not drawn)

# Test system: MCL-1ΔNΔC
# Experiment: as above
# Settings: selectivity for MCL-1ΔNΔC over BCL-XLΔC targeting (BCL-XL % Bound minus MCL-1 % Bound)
row,Structure (SMILES),Spec Values
1,CCOC(=O)c1ccc2nc(NC(=O)CSc3nc(C)cc(=O)[nH]3)sc2c1,49.78
2,CC1=C(C)C/S(=N\S(=O)(=O)c2ccc(Cl)cc2)N(S(=O)(=O)c2ccc(Cl)cc2)C1 (stereo not drawn),49.76
3,CC(C)(C)c1ccc(-c2nnc(S)[nH]2)cc1,48.83
4,Cc1oc(-c2cccc(C(F)(F)F)c2)cc1C(=O)O,48.68
5,CCCCn1c2ccccc2c2nnc(S)nc21,48.16
6,CC1=CC(=O)C(CCCC2=CC(=O)C=CC2=O)=CC1=O,48.07
7,NNCc1c(Cl)cccc1Cl,47.77
8,CCOC(=O)c1c(N2C(=O)C3C4C=CC(O4)C3C2=O)sc2c1CCCC2 (stereo not drawn),47.7
9,COC(=O)c1c(NC(=O)C2CC2)sc(C)c1C,47.29
10,Oc1ccc(/C=N/c2cccc(C(F)(F)F)c2)c(O)c1,47.26
11,COC(=O)C1C(=O)NC(S)=C(C#N)C1c1ccccc1Cl (stereo not drawn),47.12
12,Cn1c(S)nnc1CNc1cccc(C(F)(F)F)c1,47.12
13,N#C/C(=C/c1ccc(-c2ccc(C(=O)O)cc2)o1)c1ccc(Cl)cc1,46.64
14,O=C(NC(=S)NCc1ccccc1)C1CCCC1,46.46
15,CC1CCc2c(sc3ncn4c(S)nnc4c23)C1 (stereo not drawn),46.37
16,Oc1ccc(SSc2ccc(O)cc2)cc1,46.28
17,O=C(O)/C(S)=C\C=C\c1ccccc1,46.13
18,CN1CCC(N(C)Cc2cc(C(C)(C)C)c(O)c(C(C)(C)C)c2)CC1,45.97
19,O=C1c2ccccc2-c2onc3ccc(Oc4c(F)c(F)c(F)c(F)c4F)c1c23,45.97
20,N=C1NC(=O)/C(=C2/C(=O)Nc3ccc(Br)cc32)S1,45.52
21,CCCCCSc1nnc(N/C=N/O)s1,45.49

# The next lines start with the values.
row,Spec Values,Structure (SMILES)
1,50.28,CCOc1cc(/C=C(/C#N)c2cccc(Br)c2)ccc1OCc1ccc(C(=O)O)o1
2,50.23,Cc1nn(C)c2nc(NNC(=O)c3cccc(C(F)(F)F)c3)ccc12
3,49.7,O=c1ccc(-c2ccco2)nn1Cc1ccc(Cl)c(Cl)c1
4,49.28,CN1CCN(C(c2ccccn2)c2c(-c3ccccc3)n(O)c3ccccc23)CC1 (stereo not drawn)
5,48.92,Cc1c(Cl)cccc1N1C(=O)CC(N2CCCc3ccccc32)C1=O (stereo not drawn)
6,48.33,COc1cc(C(c2nnnn2C2CCCCC2)N2CCc3ccccc3C2)ccc1O (stereo not drawn)
7,48.22,CNc1sc(C(=O)c2cccs2)c(N)c1-c1nc2ccccc2s1
8,47.9,c1ccc(-c2ccc3c(c2)c2c4n3CCN=C4CCC2)cc1
9,47.79,O=C(NCc1ccco1)c1ccc(-c2cc3ccccc3oc2=O)cc1
10,47.71,COC(=O)c1ccc(C(c2cc3c(cc2O)OCO3)N2CCN(c3ccccc3)CC2)cc1 (stereo not drawn)
11,47.67,CC1=NN(c2ccccc2)C(=O)/C1=C/c1ccc(OC(=O)c2ccco2)c(Cl)c1
12,47.55,CC1(C)CC(=O)C(=Cc2cn(-c3ccccc3)nc2-c2cccs2)C(=O)C1
13,47.31,CCOc1cccc(CNc2ccc(N3CCCC3)cc2)c1
14,47.06,C=CCN1C(=O)/C(=C2/C(=O)Nc3ccccc32)c2ccccc21
15,47.06,O=C(CSc1nnc(C2CC2)n1Cc1ccco1)c1cccc(Cl)c1
16,47.02,O=S(=O)(NNc1cnc2ccccc2n1)c1ccccc1C(F)(F)F
17,47.01,CC1(C)CC(=O)C2=C(C1)Nc1ccc3ncccc3c1C2c1ccc(O)c(O)c1 (stereo not drawn)
18,46.39,CNC(=S)N/N=C1\CCOc2ccc3ccccc3c21
19,46.04,CC1(C)c2ssc(=S)c2-c2ccccc2N1C(=O)CSC#N
20,45.54,O=C1c2ccccc2CCC1Sc1nnc(-c2ccncc2)o1 (stereo not drawn)
21,45.46,CCN(CC)c1ccc(C2C(C#N)=C(N)N(c3cccc(C)c3)C3=C2C(=O)CCC3)cc1 (stereo not drawn)
22,45.43,Oc1ccc(C2Oc3ccccc3C3CC(c4ccccc4O)=NN32)cc1 (stereo not drawn)
23,45.24,COC(=O)c1c(N)sc2c1Cc1ccccc1C2
24,45.2,CC(C)CSC1=NSC2=NC(=O)/C(=C\c3ccc(SCc4ccco4)o3)C(=N)N12
25,45.19,Cc1ccnc(NC(c2ccco2)c2c(C)[nH]c3ccccc23)c1 (stereo not drawn)

# — patent publication US20150315211A1, “SMALL MOLECULES FOR THE MODULATION OF MCL-1 AND METHODS OF MODULATING CELL DEATH, CELL DIVISION, CELL DIFFERENTIATION AND METHODS OF TREATING DISORDERS” (priority 2010, published 2015)
